Source: ChEMBL document CHEMBL4837257, “Discovery of the Oxadiazine FRM-024: A Potent CNS-Penetrant Gamma Secretase Modulator” (J Med Chem, 2021)

How the values were obtained:
[1] = Genotoxicity in human peripheral blood lymphocytes by micronucleus assay; assay type: cell-based; conditions: pbl
Rattus norvegicus [2] = assay: In vivo modulation of gamma secretase in rat assessed as reduction in Abeta40 levels in CSF at 30 mg/kg, po measured at 9 hrs by ELISA relative to control; assay type: functional, Cerebrospinal fluid; design: scale not given: the % may be the effect or the level left
Cytochrome P450 2B6 = biological target: T1, Cytochrome P450 2B6 (Homo sapiens, UniProt P20813); assay: Inhibition of CYP2B6 in human hepatocytes upto 50 uM incubated for 72 hrs; assay type: ADME, cell-based, Hepatocyte
T1 sequence (P20813 whole entry): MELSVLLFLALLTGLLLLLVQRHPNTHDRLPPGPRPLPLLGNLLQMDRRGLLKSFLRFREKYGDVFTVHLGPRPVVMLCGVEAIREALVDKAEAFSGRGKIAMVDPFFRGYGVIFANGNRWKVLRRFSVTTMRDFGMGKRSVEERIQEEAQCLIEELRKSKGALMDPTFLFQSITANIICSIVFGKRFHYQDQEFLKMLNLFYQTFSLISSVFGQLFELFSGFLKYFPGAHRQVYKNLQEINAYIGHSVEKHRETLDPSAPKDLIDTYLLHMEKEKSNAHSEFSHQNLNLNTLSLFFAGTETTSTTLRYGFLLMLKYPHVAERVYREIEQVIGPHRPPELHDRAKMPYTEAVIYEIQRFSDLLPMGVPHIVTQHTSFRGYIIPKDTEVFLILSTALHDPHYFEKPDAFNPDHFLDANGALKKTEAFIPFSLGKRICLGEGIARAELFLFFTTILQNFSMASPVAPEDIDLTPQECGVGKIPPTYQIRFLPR

Cytochrome P450 2D6 = Cytochrome P450 2D6 (Homo sapiens, UniProt P10635); assay: Inhibition of CYP2D6 (unknown origin); assay type: ADME
[3] = In vivo modulation of gamma secretase in nonhuman primate assessed as reduction in Abeta42 levels in CSF by measuring AUC(0 to 48 hrs) at 30 mg/kg, po by ELISA; assay type: functional, Primates, Cerebrospinal fluid; design: scale not given: the % may be the effect or the level left
Rattus norvegicus [4] = assay: In vivo modulation of gamma secretase in rat assessed as reduction in Abeta37 levels in CSF by measuring AUC(0 to 24 hrs) at 30 mg/kg, po by ELISA; assay type: functional, Cerebrospinal fluid; design: scale not given: the % may be the effect or the level left
[5] = Half life in rat at 1 mg/kg, iv; assay type: ADME, organism-based; conditions: in vivo
[6] = In vivo modulation of gamma secretase in nonhuman primate assessed as reduction in Abeta42 levels in CSF at 30 mg/kg, po measured after 12 hrs by ELISA relative to control; assay type: functional, Primates, Cerebrospinal fluid; design: scale not given: the % may be the effect or the level left
Rattus norvegicus [7] = assay: In vivo modulation of gamma secretase in rat assessed as reduction in Abeta42 levels in brain at 30 mg/kg, po measured after 6 hrs by ELISA relative to control; assay type: functional; design: scale not given: the % may be the effect or the level left
[8] = Toxicity in guinea pig assessed as effect on signal conduction function in heart by Langendorff test; assay type: tissue-based, Cavia porcellus; conditions: in vivo
[9] = Cmax in dog at 10 mg/kg, po; assay type: ADME, organism-based, Canis lupus familiaris; design: route oral, dose 10 mg/kg; conditions: in vivo
[10] = Volume of distribution at steady state in dog at 0.5 mg/kg, iv; assay type: ADME, organism-based, Canis lupus familiaris; conditions: in vivo, read-out: Vdss
Cytochrome P450 3A4 [11] = biological target: T2, Cytochrome P450 3A4 (Homo sapiens, UniProt P08684); assay: Inhibition of CYP3A4 (unknown origin); assay type: ADME
Rattus norvegicus [12] = assay: In vivo modulation of gamma secretase in rat assessed as reduction in Abeta42 levels in CSF by measuring AUC(0 to 24 hrs) at 30 mg/kg, po by ELISA; assay type: functional, Cerebrospinal fluid; design: scale not given: the % may be the effect or the level left
[13] = Bioavailability in dog at 0.5 mg/kg, iv; assay type: ADME, organism-based, Canis lupus familiaris; conditions: in vivo
Rattus norvegicus [14] = assay: In vivo modulation of gamma secretase in rat assessed as reduction in Abeta37 levels in brain by measuring AUC(0 to 24 hrs) at 30 mg/kg, po by ELISA; assay type: functional; design: scale not given: the % may be the effect or the level left
Cytochrome P450 2C19 = Cytochrome P450 2C19 (Homo sapiens, UniProt P33261); assay: Inhibition of CYP2C19 (unknown origin); assay type: ADME
[15] = Drug metabolism in monkey hepatocytes assessed as mono and di-oxidative metabolites formation after 4 hrs; assay type: ADME, cell-based, Macaca mulatta, Hepatocyte; conditions: rhesus monkey
[16] = biological target: 5-hydroxytryptamine receptor 2B (Homo sapiens) (UniProt P41595); assay: Inhibition of serotonin 2B receptor (unknown origin) at 10 uM relative to control
[17] = biological target: Vasopressin V1a receptor (Homo sapiens) (UniProt P37288); assay: Inhibition of vasopressin 1A receptor (unknown origin) at 10 uM relative to control
[18] = Genotoxicity in Salmonella typhimurium by mini-Ames test; assay type: toxicity; conditions: salmonella enterica subsp. enterica serovar typhimurium
[19] = Bioavailability in rat at 1 mg/kg, iv; assay type: ADME, organism-based; conditions: in vivo
[20] = biological target: Sodium-dependent serotonin transporter (Homo sapiens) (UniProt P31645); assay: Inhibition of serotonin transporter (unknown origin) at 10 uM relative to control
[21] = Clearance in dog at 0.5 mg/kg, iv; assay type: ADME, organism-based, Canis lupus familiaris; conditions: in vivo
[22] = Toxicity in rat assessed as effect on left ventricular filling pressures by telemetry; conditions: in vivo
Rattus norvegicus [23] = assay: In vivo modulation of gamma secretase in rat assessed as reduction in Abeta40 levels in CSF by measuring AUC(0 to 24 hrs) at 30 mg/kg, po by ELISA; assay type: functional, Cerebrospinal fluid; design: scale not given: the % may be the effect or the level left
[24] = AUClast in dog at 10 mg/kg, po; assay type: ADME, organism-based, Canis lupus familiaris; design: route oral, time 0 - last, dose 10 mg/kg; conditions: in vivo
[25] = Toxicity in rat assessed as effect on cardiac compliance by telemetry; conditions: in vivo
[26] = AUClast in nonhuman primate at 10 mg/kg, po; assay type: ADME, organism-based; design: time 0 - last, route oral, dose 10 mg/kg; conditions: primates, in vivo
Cytochrome P450 3A4 [27] = biological target: T2, Cytochrome P450 3A4; assay: Inhibition of CYP3A4 in human hepatocytes upto 50 uM incubated for 72 hrs; assay type: ADME, cell-based, Hepatocyte
Rattus norvegicus [28] = assay: In vivo modulation of gamma secretase in rat assessed as reduction in Abeta42 levels in brain by measuring AUC(0 to 24 hrs) at 30 mg/kg, po by ELISA; assay type: functional; design: scale not given: the % may be the effect or the level left
[29] = Toxicity in guinea pig assessed as effect on ion channel function in heart by Langendorff test; assay type: tissue-based, Cavia porcellus; conditions: in vivo
[30] = Apparent permeability across apical to basolateral side in MDCK-MDR1 cells; assay type: ADME, cell-based, Canis lupus familiaris; conditions: dog
Rattus norvegicus [31] = assay: In vivo modulation of gamma secretase in rat assessed as reduction in Abeta42 levels in brain at 30 mg/kg, po measured at 16 hrs by ELISA relative to control; assay type: functional; design: scale not given: the % may be the effect or the level left
[32] = Half life in nonhuman primate at 1 mg/kg, iv; assay type: ADME, organism-based; conditions: primates, in vivo
[33] = Drug metabolism in rat hepatocytes assessed as mono and di-oxidative metabolites formation after 4 hrs; assay type: ADME, cell-based, Hepatocyte

T2 sequence (P08684 whole entry): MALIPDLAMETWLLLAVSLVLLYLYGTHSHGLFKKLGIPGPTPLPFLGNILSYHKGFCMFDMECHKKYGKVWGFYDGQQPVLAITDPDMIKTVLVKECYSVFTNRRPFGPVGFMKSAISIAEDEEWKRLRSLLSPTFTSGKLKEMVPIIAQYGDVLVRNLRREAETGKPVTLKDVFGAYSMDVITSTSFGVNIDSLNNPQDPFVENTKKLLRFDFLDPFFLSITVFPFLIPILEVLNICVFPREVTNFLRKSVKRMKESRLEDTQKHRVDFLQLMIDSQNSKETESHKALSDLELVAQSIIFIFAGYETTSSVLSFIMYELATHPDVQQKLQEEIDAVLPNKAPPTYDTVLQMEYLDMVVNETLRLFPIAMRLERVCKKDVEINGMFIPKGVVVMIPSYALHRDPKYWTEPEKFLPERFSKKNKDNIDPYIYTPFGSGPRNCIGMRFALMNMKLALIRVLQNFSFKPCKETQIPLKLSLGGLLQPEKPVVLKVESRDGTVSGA
Sequence of 5-hydroxytryptamine receptor 2B (Homo sapiens) (P41595 whole entry): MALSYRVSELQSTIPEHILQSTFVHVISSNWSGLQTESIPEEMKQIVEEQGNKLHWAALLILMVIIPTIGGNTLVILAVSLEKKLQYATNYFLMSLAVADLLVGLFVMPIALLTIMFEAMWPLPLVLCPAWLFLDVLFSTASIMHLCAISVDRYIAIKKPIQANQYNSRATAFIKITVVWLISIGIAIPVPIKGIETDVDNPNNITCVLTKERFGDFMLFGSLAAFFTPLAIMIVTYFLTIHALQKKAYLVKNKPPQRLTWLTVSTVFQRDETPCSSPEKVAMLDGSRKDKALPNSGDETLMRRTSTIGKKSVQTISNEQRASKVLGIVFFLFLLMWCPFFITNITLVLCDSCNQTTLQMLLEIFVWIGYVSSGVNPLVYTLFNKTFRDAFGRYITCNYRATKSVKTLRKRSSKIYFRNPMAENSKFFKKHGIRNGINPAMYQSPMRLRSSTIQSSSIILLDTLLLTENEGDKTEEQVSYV
Sequence of Cytochrome P450 2C19 (P33261 whole entry): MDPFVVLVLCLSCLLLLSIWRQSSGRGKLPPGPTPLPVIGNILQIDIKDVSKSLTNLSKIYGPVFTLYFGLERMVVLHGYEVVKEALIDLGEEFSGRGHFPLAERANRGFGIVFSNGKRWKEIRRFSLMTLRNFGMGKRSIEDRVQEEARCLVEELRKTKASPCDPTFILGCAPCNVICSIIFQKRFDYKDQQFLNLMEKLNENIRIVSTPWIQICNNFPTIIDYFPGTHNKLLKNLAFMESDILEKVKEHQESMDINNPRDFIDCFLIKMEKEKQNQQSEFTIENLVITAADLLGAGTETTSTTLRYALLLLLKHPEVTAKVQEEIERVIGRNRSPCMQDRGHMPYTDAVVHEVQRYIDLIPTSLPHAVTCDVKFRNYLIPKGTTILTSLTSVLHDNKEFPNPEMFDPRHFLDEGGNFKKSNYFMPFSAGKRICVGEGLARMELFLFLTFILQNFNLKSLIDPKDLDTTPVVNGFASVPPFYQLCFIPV
Sequence of Vasopressin V1a receptor (Homo sapiens) (P37288 whole entry, looked up): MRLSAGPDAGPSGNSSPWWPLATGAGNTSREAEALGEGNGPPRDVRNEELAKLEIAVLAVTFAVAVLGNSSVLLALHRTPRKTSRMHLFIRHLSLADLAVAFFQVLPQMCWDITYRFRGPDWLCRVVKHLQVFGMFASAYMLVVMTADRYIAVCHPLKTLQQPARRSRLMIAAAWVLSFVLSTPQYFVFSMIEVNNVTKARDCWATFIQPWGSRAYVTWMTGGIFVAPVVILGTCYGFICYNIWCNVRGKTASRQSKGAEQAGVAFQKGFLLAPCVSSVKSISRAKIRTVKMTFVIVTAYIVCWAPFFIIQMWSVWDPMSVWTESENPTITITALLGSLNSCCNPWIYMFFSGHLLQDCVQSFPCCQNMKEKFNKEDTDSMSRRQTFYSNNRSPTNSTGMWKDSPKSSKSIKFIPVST
Sequence of Cytochrome P450 2D6 (P10635 whole entry): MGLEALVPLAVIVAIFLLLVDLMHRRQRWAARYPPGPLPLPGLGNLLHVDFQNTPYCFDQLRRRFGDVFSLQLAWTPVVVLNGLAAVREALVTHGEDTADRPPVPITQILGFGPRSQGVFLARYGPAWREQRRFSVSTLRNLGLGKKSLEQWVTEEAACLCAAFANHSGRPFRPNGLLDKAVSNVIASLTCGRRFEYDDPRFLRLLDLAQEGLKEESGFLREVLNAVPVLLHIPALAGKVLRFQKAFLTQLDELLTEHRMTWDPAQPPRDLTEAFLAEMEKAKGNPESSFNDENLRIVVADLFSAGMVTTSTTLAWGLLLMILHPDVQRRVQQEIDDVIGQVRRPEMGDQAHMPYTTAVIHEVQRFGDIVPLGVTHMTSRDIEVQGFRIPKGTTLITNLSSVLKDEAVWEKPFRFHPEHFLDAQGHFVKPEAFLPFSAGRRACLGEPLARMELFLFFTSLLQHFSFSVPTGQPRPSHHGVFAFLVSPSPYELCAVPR
Sequence of Sodium-dependent serotonin transporter (Homo sapiens) (P31645 whole entry, looked up): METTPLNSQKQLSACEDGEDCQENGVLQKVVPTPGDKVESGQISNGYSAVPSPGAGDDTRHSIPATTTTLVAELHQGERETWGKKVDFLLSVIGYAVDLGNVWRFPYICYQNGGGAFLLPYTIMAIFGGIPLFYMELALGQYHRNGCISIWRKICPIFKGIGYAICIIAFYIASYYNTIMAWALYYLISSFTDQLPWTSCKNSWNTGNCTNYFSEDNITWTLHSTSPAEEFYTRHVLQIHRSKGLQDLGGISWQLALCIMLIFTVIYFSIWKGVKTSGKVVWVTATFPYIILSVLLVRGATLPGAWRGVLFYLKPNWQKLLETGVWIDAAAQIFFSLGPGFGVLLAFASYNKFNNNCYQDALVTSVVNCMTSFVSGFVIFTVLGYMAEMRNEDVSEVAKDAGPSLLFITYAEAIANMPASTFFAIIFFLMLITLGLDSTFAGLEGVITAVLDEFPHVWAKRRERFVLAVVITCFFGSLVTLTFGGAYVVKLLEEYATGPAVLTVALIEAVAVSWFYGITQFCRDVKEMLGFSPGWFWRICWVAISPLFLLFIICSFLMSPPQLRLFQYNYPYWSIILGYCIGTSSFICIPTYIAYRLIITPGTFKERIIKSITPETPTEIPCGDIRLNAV

inhibition (INH) (Cytochrome P450 2B6): Not Active
IC50 (Cytochrome P450 2D6): 4.5 µM
half-life [5]: 8.7 h
Cmax [9]: 4.03 µM
Vd [10]: 0.8 L/kg
IC50 (Cytochrome P450 3A4 [11]): ≥ 14 µM
bioavailability [13]: 66%
IC50 (Cytochrome P450 2C19): 9.1 µM
Drug metabolism [15]: Metabolite_Detected
inhibition [16]: > 50%
inhibition [17]: > 50%
bioavailability [19]: 86%
inhibition [20]: > 50%
clearance [21]: 3.4 mL/min/kg
AUC(0-t) [24]: 32.9 µM·h
AUC(0-t) [26]: 55.9 µM·h
inhibition (INH) (Cytochrome P450 3A4 [27]): Not Active
Papp A→B [30]: 34 ×10⁻⁶ cm/s
half-life [32]: 3.9 h
Drug metabolism [33]: Metabolite_Detected
Compound: COc1nc(C2=NOC(C3CC3)C(c3ccc(Cl)cc3)N2)ccc1-n1cnc(C)c1 (stereo unspecified)
Activity [1]: Non-Toxic
Activity (Rattus norvegicus [2]): 67%
Activity [3]: 63%
Activity (Rattus norvegicus [4]): 380%
Activity [6]: 92%
Activity (Rattus norvegicus [7]): 56%
Activity [8]: Non-Toxic
Activity (Rattus norvegicus [12]): 71%
Activity (Rattus norvegicus [14]): 88%
Activity [18]: Non-Toxic
Activity [22]: Non-Toxic
Activity (Rattus norvegicus [23]): 48%
Activity [25]: Non-Toxic
Activity (Rattus norvegicus [28]): 39%
Activity [29]: Non-Toxic
Activity (Rattus norvegicus [31]): 50%
